Values of other authors in patent US10071054B2, “Econazole composition and methods of treatment therewith” (Exeltis USA Dermatology, Inc., priority 2010, dated 2018).

Experiments:
[1] = Liao et al., Yao Xue Xue Bao 28 (1):22-7 (1993)
[2] = test system: dermatophytes and yeasts; conditions: most strains of Epidermophyton floccosum, Microsporum audouinii, M. canis, M. gypseum, Trichophyton mentagrophytes, T. rubrum, T. tonsurans, Candida albicans, Malassezia furfur

SMILES	antifungal activity of stereoisomer [1]	activity against dermatophytes and yeasts [2]
Clc1ccc(CO[C@@H](Cn2ccnc2)c2ccc(Cl)cc2Cl)cc1 [(R)-(−)-econazole]	greater antifungal activity	–
Clc1ccc(COC(Cn2ccnc2)c2ccc(Cl)cc2Cl)cc1 (centres unmarked) [Econazole nitrate]	–	shown activity
